In ChEMBL document CHEMBL1137558, “Synthesis and biological evaluation of new 2-arylcarbonyl-3-trifluoromethylquinoxaline 1,4-di-N-oxide derivatives and their reduced analogues” (2007):

What was measured:
Type in all cases: functional
[1] = Anticancer activity against renal cancer cells; conditions: Homo sapiens, Cancer cell lines
[2] = Anticancer activity against melanoma cells; conditions: Homo sapiens, Melanoma cell
[3] = Anticancer activity against CNS cancer cells; conditions: Homo sapiens, Cancer cell lines
[4] = Anticancer activity against breast cancer cells; conditions: Homo sapiens, Cancer cell lines
[5] = Anticancer activity against prostate cancer cells; conditions: Homo sapiens, Cancer cell lines
[6] = Anticancer activity against nonsmall lung cancer cells; conditions: Homo sapiens, Cancer cell lines
[7] = Anticancer activity against ovarian cancer cells; conditions: Homo sapiens, Cancer cell lines
[8] = Anticancer activity against human NCI60 cells; conditions: for CC50: read-out: LC50 (the source's name)
[9] = Anticancer activity against colon cancer cells; conditions: Homo sapiens, Cancer cell lines
[10] = Anticancer activity against leukemia cells; conditions: Homo sapiens, Leukemia cell

Row | SMILES | GI50 [1] [nM] | GI50 [2] [nM] | GI50 [3] [nM] | GI50 [4] [nM] | GI50 [5] [nM] | GI50 [6] [nM] | GI50 [7] [nM] | GI50 [8] [nM] | TGI [8] [nM] | CC50 [8] [nM] | GI50 [9] [nM] | GI50 [10] [nM]
1 | O=C(c1ccco1)c1c(C(F)(F)F)[n+]([O-])c2cc(Cl)c(Cl)cc2[n+]1[O-] | 310 | 1570 | 790 | 1380 | 330 | 280 | 1650 | 630 | 3090 | 11000 | 500 | 270
2 | Cc1ccc2c(c1)[n+]([O-])c(C(=O)c1cccs1)c(C(F)(F)F)[n+]2[O-] | 250 | 900 | 750 | 760 | 890 | 560 | 270 | 550 | 5500 | 33100 | 880 | 490
3 | O=C(c1ccc2ccccc2c1)c1c(C(F)(F)F)[n+]([O-])c2cc(C(F)(F)F)ccc2[n+]1[O-] | 1550 | 1480 | 1720 | 1670 | 1510 | 1780 | 1690 | 1580 | 3470 | 9330 | 1730 | 1200
4 | O=C(c1ccccc1)c1c(C(F)(F)F)[n+]([O-])c2cc(C(F)(F)F)ccc2[n+]1[O-] | 1470 | 1230 | 1710 | 1410 | 1320 | 1660 | 1180 | 1290 | 2950 | 8320 | 1710 | 770
5 | Cc1ccc2c(c1)[n+]([O-])c(C(=O)c1ccco1)c(C(F)(F)F)[n+]2[O-] | 580 | 880 | 740 | 660 | 240 | 470 | 850 | 660 | 3470 | 17800 | 1170 | 260
6 | O=C(c1ccccc1)c1c(C(F)(F)F)[n+]([O-])c2ccc(F)cc2[n+]1[O-] | 1140 | 950 | 1450 | 730 | 530 | 800 | 1340 | 780 | 2510 | 9120 | 540 | 230
7 | O=C(c1ccco1)c1c(C(F)(F)F)nc2ccc(C(F)(F)F)cc2[n+]1[O-] | 28600 | 31500 | 25300 | 34300 | 38500 | 39400 | 29300 | 37200 | 83200 | > 100000 | 49800 | 88100
8 | O=C(c1ccc2ccccc2c1)c1c(C(F)(F)F)[n+]([O-])c2ccc(Cl)cc2[n+]1[O-] | 1380 | 1230 | 1470 | 1150 | 1480 | 1510 | 1200 | 1230 | 2630 | 5500 | 1290 | 650
9 | O=C(c1cccs1)c1c(C(F)(F)F)[n+]([O-])c2ccc(F)cc2[n+]1[O-] | 1650 | 1510 | 1630 | 1190 | 1510 | 1680 | 1170 | 1200 | 2880 | 9330 | 920 | 270
10 | O=C(c1ccc2ccccc2c1)c1c(C(F)(F)F)[n+]([O-])c2ccc(C(F)(F)F)cc2[n+]1[O-] | 580 | 970 | 950 | 990 | 570 | 1420 | 470 | 720 | 1910 | 5500 | 660 | 260
11 | O=C(c1ccccc1)c1c(C(F)(F)F)[n+]([O-])c2ccc(C(F)(F)F)cc2[n+]1[O-] | 330 | 1130 | 690 | 540 | 270 | 640 | 580 | 510 | 1230 | 3890 | 460 | 240
12 | Cc1cc2c(cc1C)[n+]([O-])c(C(F)(F)F)c(C(=O)c1cccs1)[n+]2[O-] | 4620 | 3990 | 3050 | 3080 | 3890 | 2810 | 2340 | 3470 | 17400 | 61700 | 5310 | 2710
13 | O=C(c1cccs1)c1c(C(F)(F)F)[n+]([O-])c2ccc(Cl)cc2[n+]1[O-] | 30 | 120 | 90 | 80 | – | 70 | 160 | 70 | 500 | 2190 | 40 | 70
